As usually defined, the logP is the decadic logarithm of the partition coefficient of the neutral form, usually between octanol and water.

Results on four molecules are retold here after paper PMC10451034, “Highly Efficient Photosensitizers with Molecular Vibrational Torsion for Cancer Photodynamic Therapy” (ACS Central Science, 2023).

Series [1] is described as follows: Singlet oxygen quantum yield by DPBF decay curve method. The series is classed as physicochemical. The settings on record: for ΦΔ, singlet oxygen quantum yield: methylene blue as standard, 660 nm irradiation. The method, then:
Afterward, the singlet oxygen yields of the series of molecules were preliminarily measured and analyzed by the 1,3-diphenylisobenzofuran (DPBF) decay curve method (Figures 2d,e and S2). […] Meanwhile, in order to exclude the effect of the rigid structure, ΦΔ of a Cy7-like reference molecule (TCy7C) with a rigidified structure but absence of an oxygen atom was measured. The singlet oxygen yield of TCy7C was 2.2%, even lower than that of TCy7 under the same conditions (Figure S3). […]
Photoexcited singlet oxygen production was detected by employed 1,3-diphenylisobenzofuran (DPBF) as the indicator. The absorbance of DPBF at 415 nm was regulated to about 1.0 in DCM. And the samples were irradiated with 660 nm light for various times, then the absorption spectra of different time nodes were recorded.
The singlet oxygen quantum yield (ΦΔ) was calculated by the following equation:
Where “Φ” represent the singlet oxygen quantum yield , “sam” and “std” represent QTCy7-R and MB, respectively. “m” is the slope of the absorbance of DPBF at 415 nm with time, F=1–10-O.D. (O.D. is the absorbance of samples at 660 nm). […]

A further series relates to HepG2 cells. Put plainly: Confocal imaging of cellular uptake, subcellular localization and membrane damage. The series is classed as cell-based, human. The settings on record: for cell membrane damage on illumination: CLSM, illumination 0-4 min; for cellular distribution / Pearson correlation (colocalization) coefficient with MitoTracker Green: HepG2 cells; for cellular distribution: incubated 90 min; for photostability in cells: fluorescence intensity in cells during light irradiation; for Pearson correlation (colocalization) coefficient with MitoTracker Green: mitochondria. The protocol:
In view of QTCy7-R having strong singlet oxygen generation potency and reasonable wavelength, human hepatocellular carcinoma cells were selected for photoactivity experiments in vitro. On account of their low molecular weights and intrinsic positive cationic charge, QTCy7-R could be quickly taken up by cells within 90 min (Figure S19a,b). […] According to our supposition, the enhanced partial cationic charge caused by the introduction of the EWG in QTCy7-Ac or QTCy7-CHO made it easier for them to cling to the cell membrane with negative charge than to cross it.
Next, in order to verify the disruption effect on cell structural integrity of the ^1O2 generation by QTCy7-R under irradiation, JC-1 staining imaging was conducted to monitor the mitochondria membrane potential. […] On the other hand, cell membrane damage caused by the photooxidation of QTCy7-Ac and QTCy7-CHO could be confirmed by a visualized observation. […] Furthermore, the lactate dehydrogenase (LDH) content in cell culture medium was measured to characterize the extent of cell membrane damage.[49] […]
medium (DMEM, Invitrogen) with 10 % fetal bovine serum (Invitrogen) and 1% penicillinstreptomycin. All cells were treated at 37 °C with the humidified atmosphere containing 5% CO2 and 95% air. Before conducting cell imaging experiments, all types of cells were maintained on 35 mm glass-bottom cell dishes for 24 h.
Confocal fluorescence imaging
After culturing the cells in 35 mm glass-bottom cell dishes for 24 h, the DMEM medium was replaced with saline, then QTCy7-R was added (3 μM). The confocal fluorescence imaging was carried out and images were recorded. (λex = 640 nm, λem = 680-780 nm). In the suborganelle localization experiment s, the cells were incubated with 3 μM QTCy7-R for 90 min and then stained with LysoTracker Green DND 26 (200 nM) and MitoTracker Green FM (200 nM), respectively. After fluorescence imaging, colocalization coefficient was analyzed and recorded. (LysoTracker Green DND 26 and MitoTracker Green FM: λex = 488 nm, λem = 500-550 nm). […]

A short description of series [2]: Oil-water partition coefficient (Log P). It is filed as physicochemical. The method, then: In order to guarantee the preciseness of the supposition, electrostatic potential (ESP) analysis of the molecular surface was conducted to quantify the surface charge distribution.[48] With a unit positive charge, the surface potential of the molecule was mostly positive. As depicted in Figure 7a, most of the positive electrostatic potential regions on the surface of the molecules were located on the benzothiazole groups in all four compounds, while only a small amount of positive electrostatic potential and negative electrostatic potential are distributed on the benzoquinone group and the oxygen atom, respectively. […] On the contrary, QTCy7-Ph preferred a larger effective surface area at the low surface positive potential region (<55 kcal/mol). In addition, the areas of surface electrostatic potential in QTCy7-Me and QTCy7-Ac were maintained in a median (QTCy7-Ac was partly larger than QTCy7-Me) (Figure 7b). The oil–water partition coefficient (Log P) was also taken into account to study cell uptake. According to Log P (Figure 7c), the introduction of phenyl enhanced the lipophilicity of QTCy7-Ph, resulting a good membrane permeability, whereas the introduction of formyl enhanced the hydrophilicity of QTCy7-CHO, which decreased its cellular uptake capacity. […] This explains why only a small amount of QTCy7-CHO adhered on the membrane surface (Figure 7c).

Molecules are shown by their SMILES.

Consider `CCOC(=O)C1=C/C(=C\C=C2/Sc3ccccc3N2CC)C(=O)C(/C=C/c2sc3ccccc3[n+]2CC)=C1` [QTCy7-Ac], for which the “ΦΔ, singlet oxygen yield” value in series [1] (in dichloromethane, DPBF method) is 33.8%. In addition, the “ΦΔ, singlet oxygen quantum yield” value in series [1] (in dichloromethane) is reported as 0.338. In series [1] (under NIR irradiation), the “singlet oxygen yield relative to TCy7” value worked out at 13 fold. In the series with HepG2 cells, the “cell membrane damage on illumination” value is “formation of distinct bubblelike structures”, the cellular distribution entry is listed as “effectively adhere to the cell membrane” and the photostability in cells result is given as “good photostability”. The same molecule gave a logP in series [2] of 1.41.
Regarding `CCN1/C(=C/C=C2\C=C(C=O)C=C(/C=C/c3sc4ccccc4[n+]3CC)C2=O)Sc2ccccc21` [QTCy7-CHO], the “ΦΔ, singlet oxygen quantum yield” value in series [1] (in dichloromethane) is 0.263. Moreover, in the series with HepG2 cells, the “cell membrane damage on illumination” value was “did not cause severe cell membrane rupture”, the cellular distribution result was “effectively adhere to the cell membrane” and the photostability in cells entry is “good photostability”. In series [2], this molecule displayed a logP of 1.17.
Consider `CCN1/C(=C/C=C2\C=C(C)C=C(/C=C/c3sc4ccccc4[n+]3CC)C2=O)Sc2ccccc21` [QTCy7-Me], for which, in series [1] (in dichloromethane), the “ΦΔ, singlet oxygen quantum yield” value came out at 0.225. Also, in the series with HepG2 cells, the cellular distribution result is “could get inside cells” and the “Pearson correlation (colocalization) coefficient with MitoTracker Green” value turned out to be 0.92. Moreover, the logP in series [2] was determined as 1.43.
The matching figures for `CCN1/C(=C/C=C2\C=C(c3ccccc3)C=C(/C=C/c3sc4ccccc4[n+]3CC)C2=O)Sc2ccccc21` [QTCy7-Ph]: 0.212, “could get inside cells”, 0.89 and 1.69.
